Article PMC3758437 (Kidney international, 2013)
Structures can show the parent of a compound that is named as a salt. Where two headings read alike, the source gives them in different places.

Legend:
plasma proteins [1] = format: in vitro ADME; settings: human, plasma (ultrafiltration)
[2] = normal subjects; LC/MS/MS assay; mean±sd
plasma proteins [3] = assay: Free fraction by stable isotope dilution LC/MS/MS assay; settings: human, plasma (ultrafiltration)

| Compound | fraction unbound (plasma proteins [1]) | Plasma Free Concentration [2] | fraction unbound (plasma proteins [3]) |
| --- | --- | --- | --- |
| Cn1c(=O)c2c([nH]c(=O)n2C)n(C)c1=O [1,3,7-Trimethyluric acid] | 0.09 ± 0.03 | – | – |
| O=C(O)CCCCC(=O)O [Adipic acid] | 0.04 ± 0.01 | – | – |
| O=C(O)CNC(=O)c1ccccc1 [Hippurate] | 0.27 ± 0.05 | 1.5 ± 0.9 µM | 0.41 ± 0.02 |
| O=S(=O)(O)Oc1c[nH]c2ccccc12 [Indoxyl sulfate] | 0.02 ± 0.01 | 0.13 ± 0.05 µM | 0.027 ± 0.004 |
| O=C(O)CCCCCCC(=O)O [Suberic acid] | 0.07 ± 0.02 | – | – |
| NC(N)=O [Urea] | – | 2.4 ± 0.6×10^3 μM | – |
| Cc1ccc(OS(=O)(=O)O)cc1 [p-Cresol sulfate] | – | 0.46 ± 0.26 µM | – |

Results, then the compound that gave them:

| fraction unbound (plasma proteins [1]) | Plasma Free Concentration [2] | fraction unbound (plasma proteins [3]) | Compound |
| --- | --- | --- | --- |
| 0.39 ± 0.3 | – | – | Cn1c(=O)[nH]c2[nH]c(=O)n(C)c2c1=O [1,7-Dimethyluric acid] |
| 0.49 | – | – | O=C(O)CNC(=O)c1ccco1 [2-Furoylglycine] |
| – | 74 ± 13 µM | – | CN1CC(=O)NC1=N [Creatinine] |
| 0.11 ± 0.04 | – | – | CC(CC(=O)O)C(=O)O (stereo not drawn) [Methylsuccinic acid] |
